US7763429B2, “Compound containing farnesyl diphosphate for modulating TRPV3 function and use thereof” (Korea University Industry and Academic Collaboration …, priority 2008, dated 2010)

Assays:
[1] = target: T1, mTRPV3 (Mus musculus, UniProt Q8K424, A9V); assay: Whole-cell voltage-clamp recording of mTRPV3 transfected HEK293T cells; format: cell-based; details: for TRPV3 activity (whole cell current): mTRPV3 transfected HEK293T cells
T1 construct: transiently transfected with plasmid DNA containing polynucleotide encoding; expressed in transfected cells; host or cells: HEK293T (ATCC CRL-11268), transient
T1 sequence (Q8K424 1-791 A9V): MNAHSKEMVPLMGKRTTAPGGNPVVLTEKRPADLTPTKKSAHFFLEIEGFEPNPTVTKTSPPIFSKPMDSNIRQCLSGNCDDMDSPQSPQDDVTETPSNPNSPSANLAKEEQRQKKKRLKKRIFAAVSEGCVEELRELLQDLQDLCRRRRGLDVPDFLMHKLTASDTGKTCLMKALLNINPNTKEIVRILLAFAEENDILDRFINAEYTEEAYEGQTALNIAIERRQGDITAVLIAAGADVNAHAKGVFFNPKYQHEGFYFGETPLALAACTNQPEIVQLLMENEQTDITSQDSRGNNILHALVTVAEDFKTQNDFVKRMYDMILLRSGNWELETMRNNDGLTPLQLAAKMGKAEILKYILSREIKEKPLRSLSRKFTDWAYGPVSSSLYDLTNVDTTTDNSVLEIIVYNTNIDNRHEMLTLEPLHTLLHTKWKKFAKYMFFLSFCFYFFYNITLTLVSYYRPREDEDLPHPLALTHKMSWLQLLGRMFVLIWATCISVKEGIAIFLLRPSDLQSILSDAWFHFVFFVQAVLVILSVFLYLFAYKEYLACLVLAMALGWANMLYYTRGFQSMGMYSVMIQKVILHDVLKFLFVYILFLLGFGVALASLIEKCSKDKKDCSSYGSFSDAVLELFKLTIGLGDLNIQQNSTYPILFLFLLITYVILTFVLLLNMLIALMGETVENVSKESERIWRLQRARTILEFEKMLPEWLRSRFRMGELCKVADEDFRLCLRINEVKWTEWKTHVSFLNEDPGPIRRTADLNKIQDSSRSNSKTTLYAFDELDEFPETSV
Protocol: (§1) HEK293T cell line (ATCC CRL-11268) was transiently transfected with plasmid DNA containing polynucleotide encoding […] (SEQ. ID. NO: 1), rTRPV2 (SEQ. ID. NO: 2), mTRPV3 (SEQ. ID. NO: 3), rTRPV4 (SEQ. ID. NO: 4), mTRPM8 (SEQ. ID. NO: 5) or mTRPA1 (SEQ. ID. NO: 6).
(§2) Particularly, the HEK293T cell line was transiently transfected with 3 μg/35 mm dish of rTRPV1, rTRPV2, mTRPV3, rTRPV4, mTRPM8 and mTRPA1 plasmid DNA, and 600 ng/well of pCDNA3 (Invitrogen Corp., USA; containing green fluorescent protein (GFP) cDNA) using Fugene6 (Roche Diagnostics, USA) according to manufacturer's instruction. The transformed cells were cultured in DMEM/F12 medium containing 10% FBS and 1% penicillin/streptomycin in a CO2 incubator for 24 hours. The cells were smeared on poly-L-lysine-coated glass coverslips, followed by further culture for 10-24 hours.
The mTRPV3 transfected cell line prepared in Example 1 was treated with 1 μM of FPP (Biomol, USA), 4 mM of camphor (Sigma-Aldrich, USA) and ruthenium red (RR; Sigma-Aldrich, USA) at a required time intervals as shown in FIG. 1a. Stock solutions were made using water or DMSO, and were diluted with test solutions before use.
Whole-cell voltage-clamp recording, one of the patch-clamp techniques, was performed with the transfected cell line of Example <1-1> according to the method of Bandel M, et al. (Neuron 41:849-857, 2004).
Particularly, the extracellular solution (140 mM NaCl, 5 mM KCl, 2 mM CaCl2, 1 mM MgCl2, 10 mM HEPES; titrated to pH 7.4 with NaOH) and the pipette solution (140 mM CsCl, 5 mM EGTA, 10 mM HEPES, 2.0 mM MgATP, 0.2 mM NaGTP; titrated to pH 7.2 with CSOH) were used. The potential was held at −60 mV for 250 ms, voltage-ramp pulsed from −80 mV to +80 mV for […] and returned to −60 mV for 250 ms, which was repeated without intersweep. This experiment was repeated 5 times.

[2] = target: T2, rTRPV4 (Rattus norvegicus, UniProt Q9ERZ8); assay: Fluo-3 calcium imaging of TRPV4 transfected HEK293T cells; format: cell-based; details: 1 μM of FPP
T2 construct: transiently transfected with plasmid DNA containing polynucleotide encoding; expressed in transfected cells; host or cells: HEK293T (ATCC CRL-11268), transient
Protocol: as §1, §2
(§3) Particularly, the transfected cell line of Example <3-1> was loaded with Fluo-3AM (5 μM; Sigma Aldrich, USA) in the bath solution (140 mM NaCl, 5 mM KCl, 2 mM CaCl2, 1 mM MgCl2, 10 mM HEPES; adjusted to pH 7.4 with NaOH) containing 0.02% pluronic acid (Invitrogen, USA) at 37° C. for 1 hour. Calcium imaging was performed with LSM5 Pascal confocal microscope (Carl Zeiss, Germany), and time-lapse images (excitation 488 nm/emission 514 nm) were collected every 3 seconds using Carl Zeiss ratio tool software (Carl Zeiss, Germany). […]

[3] = target: T3, mTRPM8 (Mus musculus, UniProt Q8R4D5); assay: Fluo-3 calcium imaging of TRPM8 transfected HEK293T cells; format: cell-based; details: 1 μM of FPP
T3 construct: transiently transfected with plasmid DNA containing polynucleotide encoding; expressed in transfected cells; host or cells: HEK293T (ATCC CRL-11268), transient
Protocol: as §1, §2, §3

[4] = test system: HaCat skin cells; assay: Artificial wound recovery: migration and proliferation of HaCat skin cells; format: cell-based; details: 1 μM of FPP, 12 hours after the treatment
Protocol: HaCat (ATCC, CCL-228) cell line was seeded in a 24-well plate. The present inventors drew lines 1 mm deep on the well fully filled with the cells to make artificial wound. The wounded cells were treated with FPP (1 μM), camphor (4 mM), RR (20 μM) and GGPP (10 μM) respectively and incubated in a CO2 incubator for 12 hours. The control group was not-treated. The width of recovered wound was measured under microscope and compared with that at the beginning, which was presented as wound recovery rate. All the experiments were performed on DMEM/FBS. Floating cells, which means dead cells, after making wound, were eliminated by using PBS to eliminate variables caused by dead cells. The cells were observed under microscope (×40, IX 71 OLYMPUS), and distance was measured by using image analysis program (Meta-flour 7.1, Molecular Devices, USA).

[5] = test system: mice; assay: Acute hind paw licking/flicking behaviors after CFA inflammatory sensitization; format: in vivo; details: CFA-injected right hind paw, FPP injected into hind paw, 20 minutes
Protocol: Inflammatory sensitization by FPP was investigated. Particularly, 10 μl of CFA (complete Freund's adjuvant; Sigma Aldrich, USA) was injected to the right hind paws of mice 24 hours before the FPP injection. Before the experiment, the mice were adapted for one hour to the experimental environment. 10 μl of vehicle (saline containing 3% DMSO and 0.5% Tween 80) alone or 10 μl of vehicle containing FPP (3 mM) was injected to the right hind paws of the mice. The time spent for the hind paw licking/flicking behaviors in mice were measured according to the method of Bandell M, et al. (Neuron 41:849-857, 2004) and Moqrich A, et al. (Science 307:1468-1472, 2005), for 20 minutes. Control: not-treated; Experimental group 1.20 μl of CFA+300 μM of FPP PBS solution (black circle); Experimental group 2.20 μl of CFA (white circle).

[6] = target: T1, mTRPV3; assay: Fluo-3 calcium imaging of mTRPV3 transfected HEK293T cells; format: cell-based
Protocol: as §1, §2
The mTRPV3 transfected cell line prepared in Example 1 was treated with FPP at different concentrations from 0.1 to 1,000 nM.
Particularly, the transfected cell line of Example <3-1> was loaded with Fluo-3AM (5 μM; Sigma Aldrich, USA) in the bath solution (140 mM NaCl, 5 mM KCl, 2 mM CaCl2, 1 mM MgCl2, 10 mM HEPES; adjusted to pH 7.4 with NaOH) containing 0.02% pluronic acid (Invitrogen, USA) at 37° C. for 1 hour. Calcium imaging was performed with LSM5 Pascal confocal microscope (Carl Zeiss, Germany), and time-lapse images (excitation 488 nm/emission 514 nm) were collected every 3 seconds using Carl Zeiss ratio tool software (Carl Zeiss, Germany). Mean value curve of calcium influx response (n=12−62 per each experimental values) was made by Hill plot.
The TRPA1, TRPV1, TRPV2, TRPV3, TRPV4 and TRPM8 transfected cell lines prepared by the method of Example 1 and the non-transfected HEK cell line (control group) were treated with 1 μM of FPP. Calcium imaging was performed with the transfected cell lines treated as the above by the same manner as described in Example <3-2>.
The TRPA1, TRPV1, TRPV2, TRPV3, TRPV4 and TRPM8 transfected cell lines prepared by the method of Example 1 and the non-transfected HEK cell line (control group) were treated with 10 μM of IPP (isopentenyl pyrophosphate: Biomol, USA) and 10 μM of GGPP (geranyl-geranyl pyrophosphate: Biomol, USA), the TRPV3 regulator analogues. Calcium imaging was performed with the transfected cell lines treated as the above by the same manner as described in Example <3-2>.

[7] = target: T4, mTRPA1 (Mus musculus, UniProt Q8BLA8); assay: Fluo-3 calcium imaging of TRPA1 transfected HEK293T cells; format: cell-based; details: 1 μM of FPP
T4 construct: transiently transfected with plasmid DNA containing polynucleotide encoding; expressed in transfected cells; host or cells: HEK293T (ATCC CRL-11268), transient
Protocol: as §1, §2, §3

[8] = target: T5, rTRPV1 (Rattus norvegicus, UniProt O35433); assay: Fluo-3 calcium imaging of TRPV1 transfected HEK293T cells; format: cell-based; details: 1 μM of FPP
T5 construct: transiently transfected with plasmid DNA containing polynucleotide encoding; expressed in transfected cells; host or cells: HEK293T (ATCC CRL-11268), transient
Protocol: as §1, §2, §3

[9] = target: T6, rTRPV2 (Rattus norvegicus, UniProt Q9WUD2, A713V/L151P/T158I); assay: Fluo-3 calcium imaging of TRPV2 transfected HEK293T cells; format: cell-based; details: 1 μM of FPP
T6 construct: transiently transfected with plasmid DNA containing polynucleotide encoding; expressed in transfected cells; host or cells: HEK293T (ATCC CRL-11268), transient
T6 sequence (Q9WUD2 1-761 L151P/T158I/A713V): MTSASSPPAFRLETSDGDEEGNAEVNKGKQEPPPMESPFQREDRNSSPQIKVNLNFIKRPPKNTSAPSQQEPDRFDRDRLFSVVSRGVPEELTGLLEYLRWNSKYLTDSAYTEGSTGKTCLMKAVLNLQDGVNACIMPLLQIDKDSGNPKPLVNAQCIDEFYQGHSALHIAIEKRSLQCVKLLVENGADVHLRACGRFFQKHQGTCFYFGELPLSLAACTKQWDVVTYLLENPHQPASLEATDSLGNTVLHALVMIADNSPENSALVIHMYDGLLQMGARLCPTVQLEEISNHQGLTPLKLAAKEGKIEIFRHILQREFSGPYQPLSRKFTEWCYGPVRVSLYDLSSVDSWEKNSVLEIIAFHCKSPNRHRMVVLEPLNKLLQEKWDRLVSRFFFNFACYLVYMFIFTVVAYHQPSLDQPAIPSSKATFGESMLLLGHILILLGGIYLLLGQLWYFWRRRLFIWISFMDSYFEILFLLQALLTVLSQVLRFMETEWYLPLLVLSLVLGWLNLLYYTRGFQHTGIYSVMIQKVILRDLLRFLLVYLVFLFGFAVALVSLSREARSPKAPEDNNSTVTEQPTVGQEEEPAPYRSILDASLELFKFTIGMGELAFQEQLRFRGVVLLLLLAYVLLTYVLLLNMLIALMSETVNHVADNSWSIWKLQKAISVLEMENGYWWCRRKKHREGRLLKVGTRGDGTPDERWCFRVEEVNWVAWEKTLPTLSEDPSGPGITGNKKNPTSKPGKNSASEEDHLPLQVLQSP
Protocol: as §1, §2, §3

T3 sequence (Q8R4D5 whole entry): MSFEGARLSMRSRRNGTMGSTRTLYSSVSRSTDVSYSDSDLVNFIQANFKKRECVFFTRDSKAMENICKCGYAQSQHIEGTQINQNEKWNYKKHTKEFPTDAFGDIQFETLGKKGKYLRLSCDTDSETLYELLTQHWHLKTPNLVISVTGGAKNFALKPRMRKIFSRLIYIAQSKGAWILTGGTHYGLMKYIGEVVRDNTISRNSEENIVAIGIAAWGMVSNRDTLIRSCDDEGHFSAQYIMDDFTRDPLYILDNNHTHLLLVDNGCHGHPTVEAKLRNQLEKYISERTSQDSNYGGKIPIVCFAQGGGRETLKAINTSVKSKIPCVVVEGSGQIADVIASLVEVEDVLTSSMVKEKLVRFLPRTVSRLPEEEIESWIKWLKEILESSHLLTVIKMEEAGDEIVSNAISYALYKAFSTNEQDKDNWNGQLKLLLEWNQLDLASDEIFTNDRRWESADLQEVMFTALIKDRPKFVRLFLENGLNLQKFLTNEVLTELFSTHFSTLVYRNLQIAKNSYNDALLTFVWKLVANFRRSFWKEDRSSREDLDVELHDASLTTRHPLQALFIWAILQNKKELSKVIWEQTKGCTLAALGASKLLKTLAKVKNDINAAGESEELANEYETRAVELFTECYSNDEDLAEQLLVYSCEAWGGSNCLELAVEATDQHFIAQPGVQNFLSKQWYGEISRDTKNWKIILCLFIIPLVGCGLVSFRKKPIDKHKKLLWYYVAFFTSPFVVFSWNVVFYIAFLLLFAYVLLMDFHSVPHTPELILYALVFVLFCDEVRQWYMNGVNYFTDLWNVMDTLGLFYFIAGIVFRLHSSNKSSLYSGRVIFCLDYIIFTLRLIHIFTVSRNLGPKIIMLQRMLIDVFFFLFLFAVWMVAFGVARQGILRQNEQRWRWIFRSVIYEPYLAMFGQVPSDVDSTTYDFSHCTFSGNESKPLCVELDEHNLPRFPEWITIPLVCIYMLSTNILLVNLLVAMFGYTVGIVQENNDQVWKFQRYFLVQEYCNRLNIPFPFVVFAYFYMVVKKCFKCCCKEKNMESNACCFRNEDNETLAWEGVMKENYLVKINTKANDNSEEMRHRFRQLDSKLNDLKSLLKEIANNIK
T2 sequence (Q9ERZ8 whole entry): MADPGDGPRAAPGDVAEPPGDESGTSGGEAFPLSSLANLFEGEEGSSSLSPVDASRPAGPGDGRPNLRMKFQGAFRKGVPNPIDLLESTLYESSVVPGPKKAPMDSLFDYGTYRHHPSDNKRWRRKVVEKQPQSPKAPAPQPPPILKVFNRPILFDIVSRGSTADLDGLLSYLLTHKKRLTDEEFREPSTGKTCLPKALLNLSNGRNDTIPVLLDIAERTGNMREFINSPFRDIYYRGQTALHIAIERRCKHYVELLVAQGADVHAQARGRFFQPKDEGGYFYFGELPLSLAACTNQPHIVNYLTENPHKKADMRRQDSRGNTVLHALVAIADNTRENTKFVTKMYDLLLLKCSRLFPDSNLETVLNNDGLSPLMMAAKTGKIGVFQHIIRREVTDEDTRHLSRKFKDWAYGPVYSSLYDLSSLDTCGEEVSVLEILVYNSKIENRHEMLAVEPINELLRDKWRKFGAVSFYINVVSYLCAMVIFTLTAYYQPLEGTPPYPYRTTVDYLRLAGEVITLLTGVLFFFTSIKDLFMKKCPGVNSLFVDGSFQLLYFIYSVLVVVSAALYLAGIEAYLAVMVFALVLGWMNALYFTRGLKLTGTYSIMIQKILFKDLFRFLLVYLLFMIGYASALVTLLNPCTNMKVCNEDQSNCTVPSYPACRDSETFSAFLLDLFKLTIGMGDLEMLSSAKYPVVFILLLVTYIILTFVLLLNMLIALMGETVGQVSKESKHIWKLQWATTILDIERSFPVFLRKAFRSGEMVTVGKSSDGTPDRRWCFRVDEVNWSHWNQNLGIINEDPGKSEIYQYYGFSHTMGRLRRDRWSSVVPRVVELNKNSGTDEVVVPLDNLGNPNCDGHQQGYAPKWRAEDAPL
T5 sequence (O35433 whole entry): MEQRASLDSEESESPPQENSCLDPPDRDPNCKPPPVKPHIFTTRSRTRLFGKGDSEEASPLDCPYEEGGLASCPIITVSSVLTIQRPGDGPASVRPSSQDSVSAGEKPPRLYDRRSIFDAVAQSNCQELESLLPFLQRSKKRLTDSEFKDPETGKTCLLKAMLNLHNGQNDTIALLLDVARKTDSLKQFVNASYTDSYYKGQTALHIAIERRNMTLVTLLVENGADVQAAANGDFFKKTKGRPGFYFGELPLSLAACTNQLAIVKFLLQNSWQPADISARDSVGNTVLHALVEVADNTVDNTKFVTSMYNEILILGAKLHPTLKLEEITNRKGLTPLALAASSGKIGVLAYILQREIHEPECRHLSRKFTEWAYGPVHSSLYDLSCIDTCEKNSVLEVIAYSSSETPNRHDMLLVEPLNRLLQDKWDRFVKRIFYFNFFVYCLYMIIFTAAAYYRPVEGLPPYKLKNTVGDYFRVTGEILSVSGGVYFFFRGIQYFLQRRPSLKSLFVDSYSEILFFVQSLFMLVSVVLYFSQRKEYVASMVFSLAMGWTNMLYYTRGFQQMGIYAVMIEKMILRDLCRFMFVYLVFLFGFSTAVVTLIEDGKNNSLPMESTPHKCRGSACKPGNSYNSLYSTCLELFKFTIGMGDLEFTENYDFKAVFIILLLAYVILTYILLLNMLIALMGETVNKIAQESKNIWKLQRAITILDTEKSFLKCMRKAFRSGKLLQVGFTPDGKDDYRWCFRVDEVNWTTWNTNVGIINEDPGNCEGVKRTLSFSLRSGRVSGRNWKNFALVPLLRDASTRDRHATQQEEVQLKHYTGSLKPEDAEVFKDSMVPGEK
T4 sequence (Q8BLA8 whole entry): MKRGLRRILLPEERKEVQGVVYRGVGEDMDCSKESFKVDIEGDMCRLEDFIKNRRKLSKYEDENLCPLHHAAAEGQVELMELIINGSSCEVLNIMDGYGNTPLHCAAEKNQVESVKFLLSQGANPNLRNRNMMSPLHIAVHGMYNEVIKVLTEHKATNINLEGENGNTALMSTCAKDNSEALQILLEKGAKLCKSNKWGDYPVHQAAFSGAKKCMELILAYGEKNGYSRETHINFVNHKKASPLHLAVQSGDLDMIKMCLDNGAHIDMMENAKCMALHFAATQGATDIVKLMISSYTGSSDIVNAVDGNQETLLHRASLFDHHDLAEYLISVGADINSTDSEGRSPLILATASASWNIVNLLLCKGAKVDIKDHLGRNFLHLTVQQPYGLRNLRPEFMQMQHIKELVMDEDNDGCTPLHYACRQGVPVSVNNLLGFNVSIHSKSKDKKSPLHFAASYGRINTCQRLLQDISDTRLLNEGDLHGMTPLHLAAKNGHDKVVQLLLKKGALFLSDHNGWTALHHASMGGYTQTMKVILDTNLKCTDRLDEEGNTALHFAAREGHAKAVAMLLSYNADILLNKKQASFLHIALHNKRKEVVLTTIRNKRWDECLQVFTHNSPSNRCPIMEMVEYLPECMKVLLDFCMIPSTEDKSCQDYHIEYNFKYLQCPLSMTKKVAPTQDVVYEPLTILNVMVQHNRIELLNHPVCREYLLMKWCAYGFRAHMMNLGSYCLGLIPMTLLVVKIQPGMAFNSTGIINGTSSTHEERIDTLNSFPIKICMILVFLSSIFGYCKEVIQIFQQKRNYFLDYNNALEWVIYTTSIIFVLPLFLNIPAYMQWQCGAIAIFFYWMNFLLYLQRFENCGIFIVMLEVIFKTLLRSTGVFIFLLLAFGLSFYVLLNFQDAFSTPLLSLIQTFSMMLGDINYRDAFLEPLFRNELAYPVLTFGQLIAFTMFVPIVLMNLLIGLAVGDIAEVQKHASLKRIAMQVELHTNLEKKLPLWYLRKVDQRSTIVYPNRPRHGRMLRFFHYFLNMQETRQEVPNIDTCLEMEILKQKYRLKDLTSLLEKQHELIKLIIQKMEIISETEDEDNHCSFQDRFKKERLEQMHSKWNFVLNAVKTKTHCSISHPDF

## CC(C)=CCCC(C)=CCCC(C)=CCOP(=O)(O)OP(=O)(O)O [FPP, 3,7,11-trimethyldodeca-2,6,10-trien-1-yl trihydrogen diphosphate]
[1]; 1 μM of FPP, +60 mV and −60 mV
  TRPV3 activity (whole cell current): significant increase of TRPV3 activity
[2]
  TRPV4 activation (calcium imaging): did not exhibited activity
[3]
  TRPM8 activation (calcium imaging): did not exhibited activity
[4]
  migration and proliferation of HaCat skin cells (wound recovery rate): significantly inhibited
[5]
  hind paw licking/flicking behavior (pain): significantly increased licking/flicking behavior
[6]; 1 μM of FPP
  TRPV3 activation (calcium imaging): activated
[6]; calcium influx response, FPP 0.1 to 1,000 nM
  maximal effective dose: approximately 1 μM
[6]; calcium influx response, FPP 0.1 to 1,000 nM, Hill plot, read-out: EC50 (effective concentration 50%) to TRPV3
  EC50: 31.9 nM
[7]
  TRPA1 activation (calcium imaging): did not exhibited activity
[8]
  TRPV1 activation (calcium imaging): did not exhibited activity
[9]
  TRPV2 activation (calcium imaging): did not exhibited activity

## CC(C)=CCC/C(C)=C/CC/C(C)=C/CC/C(C)=C/COP(=O)(O)OP(=O)(O)O [GGPP, geranyl-geranyl pyrophosphate, reference compound]
[6]; 10 μM of analogue
  TRPV3 activation (calcium imaging): did not induce TRPV3 activation

## CC12CCC(CC1=O)C2(C)C (centres unmarked) [camphor]
[1]; camphor 4 mM
  TRPV3 activity (whole cell current): the activity was not so much increased

## N.N.N.N.N.N.N.N.N.N.N.N.N.N.[Cl-].[Cl-].[Cl-].[Cl-].[Cl-].[Cl-].[O-2].[O-2].[Ru+3].[Ru+3].[Ru+4] [ruthenium red]
[1]; ruthenium red applied to the activated mTRPV3 transfected cells
  TRPV3 activity (whole cell current) on treatment with the TRP ion channel blocker: activity was reduced
